Reference: patent publication US8871815B2, “Therapeutic compounds” (Signature Therapeutics, Inc., priority 2007, dated 2014)
Read-outs that look alike come from different tables or passages of the source. Marks after values point to notes of the source that are not given here.

Tests used:
Beagle dogs [1] = tested on: Beagle dogs
rats = assay: Separate rat study, bolus IV, 1% in cremaphor, sleep time; format: in vivo; details: for Sleep Time (duration of anesthesia): 7 mg/kg bolus IV
male Sprague-Dawley rats [2] = assay: Anesthetic effects in rats, bolus IV, Loss of Righting Reflex (LORR); format: in vivo, rat
Procedure: (§1) Also measured was minimum dose to achieve LORR and maximum tolerated dose (MTD).
(§2) The ranges of doses studied were 1.9, 2.3, 3.0, 7.0, 13.7, 14.0 and 15.2 mg/kg for Compound 1 and 3.5, 4.0, 7.0 and 14.0 mg/kg for […].

[3] = as above; format: in vivo, rat; details: male, Sprague-Dawley, rat, in vivo; bolus IV, rats; read-out: MTD (maximum tolerated dose)
Procedure: as §1, §2

Beagle dogs [4] = assay: Hemodynamic effects (blood pressure) in beagle dogs, bolus IV; format: in vivo, dog; details: 4 min after administration
Procedure: The study was a crossover design. […] The MTD was defined as the dose that reduced mean arterial blood pressure (MAP) by 50% or to less than 50 millimeters of mercury (mmHg or mm Hg). All animals received supplemental oxygen and, if needed, ventilatory support after 4 min of apnea.
Hemodynamic data, such as mean arterial pressure (MAP), were recorded at baseline, 1, 2, 4, 8, 15, 20 and 30 min. Compound 1 was administered at 5, 10, 15 and 30 mg/kg to 3, 6, 6 and 3 dogs respectively. […] Data were analyzed with a 2-way ANOVA followed by t-test with Bonferroni correction for multiple comparisons.

male Sprague-Dawley rats [5] = assay: Anesthetic effects in rats, bolus IV, Loss of Righting Reflex (LORR); format: in vivo, rat; details: 49 mg/kg bolus IV
ferrets = assay: Anti-emetic activity in ferrets (morphine sulfate induced emesis); details: 6 ferrets
Procedure: Male descented ferrets weighing 1.0-1.5 kg with vascular access ports in the jugular vein were housed on a 12/12-hour light/dark cycle under controlled temperature, with food and water provided ad libitum. On each study day, food was presented to ferrets one hour prior to dosing. Immediately prior to dosing, food and water were removed. A 1% Compound 1 formulation, prepared as described in Example 5 and formulated in accordance with Example 4, or […] was administered by IV infusion to the ferrets; see Wynn R L et al, 1993, Eur J Pharmacol 241, 42 re […] administration in ferrets. After administration of Compound 1 or […], animals were placed in clean, transparent cages (with lids) and left unrestrained for a 45-min observation period by an observer blinded to the specific treatment administered.
Episodes of retching and/or vomiting were considered separate episodes when the interval between retches and/or vomits exceeded 5 sec.
After termination of the infusion, 0.5 mg/kg morphine sulfate was administered subcutaneously and the ferrets were monitored for 45 min as described above. Six additional ferrets were administered subcutaneously 0.5 mg/kg morphine sulfate only.

[6] = tested on: alpha2, NMDA, PCP, benzodiazepine or opioid receptors; assay: Cerep Diversity Profile: other receptors; format: binding; details: tested at 10 μM
pigs [7] = assay: in vivo; details: pig, in vivo, iv
Procedure: (§3) Experiments were performed on commercial farm-bred swine of either sex (mean weight 33.6 kg). Anesthesia was induced with isoflurane. Intravascular access was obtained from an ear vein. Each pig was intubated and mechanically ventilated. Tissue oxygenation was monitored using continuous pulse oximetry placed on the tongue. Ventilation was monitored using an inspired/expired gas analyzer that measured oxygen, carbon dioxide, and potent inhalation agent concentrations. Ventilator settings were adjusted as needed to maintain steady state.
(§4) ECG was monitored throughout the study. Arterial blood pressure was monitored through the cannulated left femoral artery. MAP, systolic and diastolic arterial pressures and heart rate were collected every 5 seconds. An internal jugular vein was cannulated with a pulmonary artery catheter for thermodilution estimates of cardiac output and blood temperature. Body temperature was maintained at 37° C. Instrumentation for EEG monitoring was accomplished using an adhesive electrode array over the fronto-occipital regions (Aspect Medical. Norwood, Mass., USA).
(§5) Metabolic and hemodynamic parameters for each group were compared at multiple time points using an unpaired two-tailed Student t test. To account for multiple comparisons and maintain the probability of a type I error below 0.05, P values less than 0.025 were considered significant.

in vivo = details: both, pig, in vivo, iv
Procedure: as §3, §4, §5

[8] = Aqueous phase concentration in lipid emulsion (ultrafiltration, LC/MS/MS); format: physicochemical; details: 1% lipid emulsion formulation
Procedure: The concentration of Compound 1 in the aqueous phase (aqueous phase concentration) of a lipid emulsion formulation was determined.
A one percent (1%) Compound 1 formulation was formulated in accordance with Example 4, Compound 1 being prepared as described in Example 5.

mongrel dogs = assay: Anesthetic and hemodynamic effects in chronically instrumented mongrel dogs, total intravenous anesthesia; format: in vivo, dog; details: IV bolus then stepwise IV infusions 0.25-2.0 mg/kg/min
Procedure: Assessments included hemodynamic performance parameters such as blood pressure, heart rate, and cardiac output as well as clinical chemistry parameters and EEG analysis.
General anesthesia was induced in the dogs by IV administration of 7 mg/kg […], and the dogs were tracheally intubated and mechanically ventilated. General anesthesia was maintained using 2.2% end-tidal sevoflurane in oxygen. A thoracotomy was performed at the fifth left intercostal space, and heparin-filled catheters were placed in the proximal descending thoracic aorta (P50 pressure transducer Gould, Oxnard, Calif.), and in the right and left atria to provide IV access. An ultrasonic transit-time flow probe (T108, Transonic Systems, Ithaca, N.Y.) was placed around the ascending thoracic aorta. A […] Doppler flow probe (Model HDP-20-3.5, Triton Surgical Technologies, San Diego, Calif.) was placed around the left anterior descending coronary artery. Six MHz sonomicrometer crystals (Hartley, Houston, Tex.) were implanted in the subendocardium. A high fidelity micromanometer (P7, Konigsberg Instruments, Pasadena, Calif.) was inserted into the left ventricle. […]
The dogs were fasted overnight. […] EEG was recorded continuously during the experiment. Arterial blood gas and chemistry measures included pH, pO2, sO2, pCO2, tCO2, carbonate, potassium, sodium, and base excess, and were measured immediately following blood draws using a blood gas and chemistry analyzer (ABL-505, Radiometer, Copenhagen). […] Following stabilization, baseline measurements of EEG, hemodynamics, ECG, and blood gases were recorded. Blood samples were drawn for PK and clinical chemistry, and pressure volume loops were generated and data recorded.
Following induction, the dogs were tracheally intubated, and mechanically ventilated using 50% oxygen in nitrogen throughout the subsequent drug infusion and recovery periods. […] MAP was monitored continuously, and dosing was discontinued immediately if MAP decreased below 50 mmHg at any time or if the heart rate increased over 200 beats per minute. […]

[9] = target: T1, phosphodiesterase 2 (PDE2) (Homo sapiens, UniProt O00408); assay: Cerep Diversity Profile: enzymes, PDE2; format: biochemical; details: tested at 10 μM; read-out: inhibition of control binding, PDE2
T1 construct: Cerep, Inc
T1 sequence (O00408 whole entry): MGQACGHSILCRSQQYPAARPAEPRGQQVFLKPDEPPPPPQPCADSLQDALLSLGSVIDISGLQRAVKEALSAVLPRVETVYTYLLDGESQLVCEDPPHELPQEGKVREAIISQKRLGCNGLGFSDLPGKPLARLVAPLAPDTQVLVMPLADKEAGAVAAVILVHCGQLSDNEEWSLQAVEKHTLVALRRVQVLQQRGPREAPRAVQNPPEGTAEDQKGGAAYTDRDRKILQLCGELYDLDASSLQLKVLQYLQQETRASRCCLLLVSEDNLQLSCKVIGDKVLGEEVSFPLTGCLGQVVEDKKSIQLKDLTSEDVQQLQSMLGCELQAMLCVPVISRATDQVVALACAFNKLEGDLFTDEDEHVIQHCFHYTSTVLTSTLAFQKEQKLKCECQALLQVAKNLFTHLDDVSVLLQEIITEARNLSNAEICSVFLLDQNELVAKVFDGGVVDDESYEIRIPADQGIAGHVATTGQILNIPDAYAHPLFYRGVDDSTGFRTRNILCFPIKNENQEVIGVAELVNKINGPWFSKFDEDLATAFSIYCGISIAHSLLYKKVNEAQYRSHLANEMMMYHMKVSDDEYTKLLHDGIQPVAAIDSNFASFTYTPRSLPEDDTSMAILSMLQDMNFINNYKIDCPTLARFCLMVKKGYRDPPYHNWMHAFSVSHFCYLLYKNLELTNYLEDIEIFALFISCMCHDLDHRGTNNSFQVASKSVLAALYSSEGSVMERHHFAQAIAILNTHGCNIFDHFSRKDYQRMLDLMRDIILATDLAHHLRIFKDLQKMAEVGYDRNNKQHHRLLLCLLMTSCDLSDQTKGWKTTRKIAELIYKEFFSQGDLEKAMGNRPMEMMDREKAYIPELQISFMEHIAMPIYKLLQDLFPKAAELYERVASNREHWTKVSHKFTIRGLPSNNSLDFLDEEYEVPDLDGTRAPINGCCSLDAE

pigs [10] = assay: Hemodynamic effects, arterial blood gas and serum chemistry in pigs, IV infusion; format: in vivo, pig; details: IV infusion, pigs (Compound 1 0.384, propofol 0.750 mg/kg/min)
Procedure: Anesthesia was induced with isoflurane. Intravascular access was obtained from an ear vein. Each pig was intubated and mechanically ventilated.
ECG was monitored throughout the study. […] Body temperature was maintained at 37° C.
Arterial blood gas samples from pigs infused with Compound 1 were taken and analyzed for blood gas and serum chemistry values; mean values are reported in Table 4.

[11] = morphine sulfate 0.5 mg/kg subcutaneously alone, 45 min observation
[12] = 15 min IV infusion at 1 mg/kg/min, then 0.5 mg/kg morphine sulfate sc, 45 min

| Compound | duration of anesthesia (sleep time) (Beagle dogs [1]; 5 mg/kg bolus IV, dogs) [min] | duration of anesthesia (sleep time) (Beagle dogs [1]; 10 mg/kg bolus IV, dogs) [min] | duration of anesthesia (sleep time) (Beagle dogs [1]; 15 mg/kg bolus IV, dogs) [min] | duration of anesthesia (sleep time) (Beagle dogs [1]; 30 mg/kg bolus IV, dogs) [min] | Sleep Time (duration of anesthesia) (rats; rats) [min] | HD50 (dose required to cause 50% of the rats to lose righting reflex) (male Sprague-Dawley rats [2]; bolus IV, rats) [mg/kg] | HD7min (dose required to produce 7 minutes of anesthesia) (male Sprague-Dawley rats [2]; bolus IV, rats) [mg/kg] | MAP % change from baseline (Beagle dogs [4]; 10 mg/kg bolus IV) | MAP % change from baseline (Beagle dogs [4]; 15 mg/kg bolus IV) | MAP % change from baseline (Beagle dogs [4]; 30 mg/kg bolus IV) | also measured |
| --- | --- | --- | --- | --- | --- | --- | --- | --- | --- | --- | --- |
| CC[C@H](C)c1cccc([C@@H](C)CC)c1O (single isomer, unassigned) [(S,S)] | 8 | 24 | 50 | 50 | 6.3 | 4 | 5.2 | +7% | +5% | 0% | TI (therapeutic index, ratio of MTD to HD7 min) (male Sprague-Dawley rats [2]; bolus IV, rats): 8.1; MTD [3]: 42 mg/kg; deaths (male Sprague-Dawley rats [5]): One of six rats died |
| CC[C@@H](C)c1cccc([C@@H](C)CC)c1O [(meso), (meso)-2,6-di-sec-butylphenol] | 25 | 36 | 55 | 58 | 12.7 | – | – | +5% | +15% | −16% | quality of anesthesia (smoothness of induction, muscle tone, involuntary motion) (Beagle dogs [1]; bolus IV, dogs): inferior; deaths (rats; 21 mg/kg, rats): One of 6 rats; duration of anesthesia (rats; 21 mg/kg, remaining 5 rats): 34 min |
| CN1CC[C@]23c4c5ccc(O)c4O[C@H]2[C@@H](O)C=C[C@H]3[C@H]1C5.O=S(=O)(O)O [Morphine sulfate] | – | – | – | – | – | – | – | – | – | – | episodes of vomiting (ferrets; [11]): 15; retches (ferrets; [11]): 157 |
| CC(C)c1cccc(C(C)C)c1O [Propofol, 2,6-diisopropylphenol, reference compound] | – | – | – | – | 7.1 | 3.8 | 7.0 | −22% | −32% | −66%* | effects at alpha2, NMDA, PCP, benzodiazepine or opioid receptors [6]: No significant effects; dogs reaching the MTD (MAP reduced by 50% or to less than 50 mmHg) (Beagle dogs [1]; dog, in vivo, iv): Two of 3 dogs; IV infusion time producing maximal suppression of BIS (pigs [7]): 9.4 ± 1.9 min; AUC (in vivo): 1810 ng·h/mL; aqueous phase concentration [8]: 6.28 ± 0.41 µg/mL; Cardiac output versus baseline (mongrel dogs): significantly reduced from baseline; LORR produced (male Sprague-Dawley rats [2]; 3.5 mg/kg bolus IV, 6 rats): no LORR in 4 of 6 rats; retches (ferrets; [12]): 47; vomits (ferrets; [12]): 3; inhibition at 10 µM [9]: > 20%; lowest HR measured (pigs [10]): 88±6 bpm |
